The test deals with T1, Activin receptor type-1 (Homo sapiens, UniProt Q04771).
T1 sequence (Q04771 whole entry): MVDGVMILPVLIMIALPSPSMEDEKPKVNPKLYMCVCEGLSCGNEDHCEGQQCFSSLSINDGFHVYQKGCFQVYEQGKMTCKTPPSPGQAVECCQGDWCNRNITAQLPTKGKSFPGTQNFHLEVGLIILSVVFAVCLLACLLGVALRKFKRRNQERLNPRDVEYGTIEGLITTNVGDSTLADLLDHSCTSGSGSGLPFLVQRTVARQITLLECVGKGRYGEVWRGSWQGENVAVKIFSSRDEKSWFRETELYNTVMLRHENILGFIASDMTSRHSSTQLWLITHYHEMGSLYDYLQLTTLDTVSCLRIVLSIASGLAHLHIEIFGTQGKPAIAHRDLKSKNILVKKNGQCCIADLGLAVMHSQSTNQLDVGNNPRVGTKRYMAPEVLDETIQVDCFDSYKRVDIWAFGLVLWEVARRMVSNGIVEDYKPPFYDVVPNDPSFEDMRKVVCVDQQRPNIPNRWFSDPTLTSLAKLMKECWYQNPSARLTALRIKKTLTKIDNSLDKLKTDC
The test is described as follows: ALK1-6 enzymatic assays: Specifically, compounds were assayed using LANCE® Ultra ULight¿ technology (Perkin Elmer) against human ALK1-6 enzymes (ALK1: Life Technologies, ALK2-6: Carna Biosciences). Briefly, ALK enzyme (10 nM) was prepared in kinase buffer (50 mM HEPES, pH 7.5, 10 mM MgCl2, […], 0.005% Tween-20 and 2 mM DTT) and dispensed at 2.5 μL/well into a 1536 well, white, solid …. Background: TR-FRET usually uses a lanthanide donor and a delayed reading to cut background.

As usually defined, the IC50 is the point on the concentration scale where inhibition reaches its midpoint. A higher IC50 goes with weaker potency in that assay.

For `Cc1cc(-c2cnn3cc(-c4ccc(C5CCNCC5)cc4)cnc23)c2ccccc2n1`, the IC50 worked out at 23 nM.

Values taken from ChEMBL document CHEMBL5725340, “BMP inhibitors and methods of use thereof” (2017).
